{
  "source": "patent US9828360B2",
  "about": "(Array BioPharma Inc., priority 2012, dated 2017)",
  "assay_in_all_cases": "KinaseProfiler off-target kinase profiling",
  "type_in_all_cases": "biochemical",
  "conditions_in_all_cases": "10 μM, ATP near Km",
  "key": {"Pim-2": {"target": "T1, Pim-2 (Homo sapiens, UniProt Q9P1W9)", "T1 construct": "purchased Millipore, Inc. (KinaseProfiler service)", "procedure,_shortened": "(§1)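 Read-out: percent of control, mean of duplicate wells. Compound at 10 μM; ATP set close to each kinase's Km.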"}, "MAP3K5": {"target": "T2, MAP3K5 (Homo sapiens, UniProt Q99683)", "T2 construct": "purchased Millipore, Inc. (KinaseProfiler service)", "procedure,_shortened": "as §1"}, "PKCalpha": {"target": "T3, PKCalpha (Homo sapiens, UniProt P17252)", "T3 construct": "purchased Millipore, Inc. (KinaseProfiler service)", "procedure,_shortened": "as §1"}, "HIPK1": {"target": "T4, HIPK1 (Homo sapiens, UniProt Q86Z02)", "T4 construct": "purchased Millipore, Inc. (KinaseProfiler service)", "procedure,_shortened": "as §1"}, "PKCdelta": {"target": "T5, PKCdelta (Homo sapiens, UniProt Q05655)", "T5 construct": "purchased Millipore, Inc. (KinaseProfiler service)", "procedure,_shortened": "as §1"}, "TAO2": {"target": "T6, TAO2 (Homo sapiens, UniProt Q9UL54)", "T6 construct": "purchased Millipore, Inc. (KinaseProfiler service)", "T6 sequence (Q9UL54 whole entry)": "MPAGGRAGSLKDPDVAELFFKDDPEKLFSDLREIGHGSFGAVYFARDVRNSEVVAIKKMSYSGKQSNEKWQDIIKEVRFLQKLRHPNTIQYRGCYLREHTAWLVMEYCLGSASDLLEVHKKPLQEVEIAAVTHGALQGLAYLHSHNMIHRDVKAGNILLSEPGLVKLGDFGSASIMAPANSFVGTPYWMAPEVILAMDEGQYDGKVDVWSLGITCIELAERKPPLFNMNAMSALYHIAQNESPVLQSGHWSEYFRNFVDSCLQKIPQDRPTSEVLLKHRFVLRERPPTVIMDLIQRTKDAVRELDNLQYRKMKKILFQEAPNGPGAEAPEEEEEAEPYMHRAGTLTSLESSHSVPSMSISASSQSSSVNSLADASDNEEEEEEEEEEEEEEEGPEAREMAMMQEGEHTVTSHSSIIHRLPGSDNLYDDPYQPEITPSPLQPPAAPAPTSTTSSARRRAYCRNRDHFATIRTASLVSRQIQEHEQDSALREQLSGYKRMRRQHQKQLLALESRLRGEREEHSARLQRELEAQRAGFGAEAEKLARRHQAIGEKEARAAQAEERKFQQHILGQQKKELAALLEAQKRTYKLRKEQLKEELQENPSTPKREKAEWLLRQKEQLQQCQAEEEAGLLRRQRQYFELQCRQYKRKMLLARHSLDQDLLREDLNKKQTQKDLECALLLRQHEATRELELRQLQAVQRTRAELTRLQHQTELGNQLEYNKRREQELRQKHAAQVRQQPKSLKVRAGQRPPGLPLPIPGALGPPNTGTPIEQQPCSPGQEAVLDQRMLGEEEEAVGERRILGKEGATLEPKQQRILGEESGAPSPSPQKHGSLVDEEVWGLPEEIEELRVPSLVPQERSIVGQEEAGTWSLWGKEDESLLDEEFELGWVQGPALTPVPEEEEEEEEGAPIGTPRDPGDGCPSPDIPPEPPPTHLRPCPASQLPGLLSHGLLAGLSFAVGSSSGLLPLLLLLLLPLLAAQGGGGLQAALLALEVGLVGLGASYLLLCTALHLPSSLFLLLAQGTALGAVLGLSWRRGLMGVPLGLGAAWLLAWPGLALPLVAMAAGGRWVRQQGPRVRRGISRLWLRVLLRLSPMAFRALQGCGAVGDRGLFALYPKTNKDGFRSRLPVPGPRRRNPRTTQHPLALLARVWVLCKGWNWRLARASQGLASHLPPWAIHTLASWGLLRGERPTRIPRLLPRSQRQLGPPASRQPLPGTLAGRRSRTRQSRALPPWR", "procedure,_shortened": "as §1"}, "TBK1": {"target": "T7, TBK1 (Homo sapiens, UniProt Q9UHD2)", "T7 construct": "purchased Millipore, Inc. (KinaseProfiler service)", "procedure,_shortened": "as §1"}, "Fgr": {"target": "T8, Fgr (Homo sapiens, UniProt P09769)", "T8 construct": "purchased Millipore, Inc. (KinaseProfiler service)", "procedure,_shortened": "as §1"}, "IR": {"target": "T9, IR (Homo sapiens, UniProt P06213)", "T9 construct": "purchased Millipore, Inc. (KinaseProfiler service)", "procedure,_shortened": "as §1"}, "TAO3": {"target": "T10, TAO3 (Homo sapiens, UniProt Q9H2K8)", "T10 construct": "purchased Millipore, Inc. (KinaseProfiler service)", "T10 sequence (Q9H2K8 whole entry)": "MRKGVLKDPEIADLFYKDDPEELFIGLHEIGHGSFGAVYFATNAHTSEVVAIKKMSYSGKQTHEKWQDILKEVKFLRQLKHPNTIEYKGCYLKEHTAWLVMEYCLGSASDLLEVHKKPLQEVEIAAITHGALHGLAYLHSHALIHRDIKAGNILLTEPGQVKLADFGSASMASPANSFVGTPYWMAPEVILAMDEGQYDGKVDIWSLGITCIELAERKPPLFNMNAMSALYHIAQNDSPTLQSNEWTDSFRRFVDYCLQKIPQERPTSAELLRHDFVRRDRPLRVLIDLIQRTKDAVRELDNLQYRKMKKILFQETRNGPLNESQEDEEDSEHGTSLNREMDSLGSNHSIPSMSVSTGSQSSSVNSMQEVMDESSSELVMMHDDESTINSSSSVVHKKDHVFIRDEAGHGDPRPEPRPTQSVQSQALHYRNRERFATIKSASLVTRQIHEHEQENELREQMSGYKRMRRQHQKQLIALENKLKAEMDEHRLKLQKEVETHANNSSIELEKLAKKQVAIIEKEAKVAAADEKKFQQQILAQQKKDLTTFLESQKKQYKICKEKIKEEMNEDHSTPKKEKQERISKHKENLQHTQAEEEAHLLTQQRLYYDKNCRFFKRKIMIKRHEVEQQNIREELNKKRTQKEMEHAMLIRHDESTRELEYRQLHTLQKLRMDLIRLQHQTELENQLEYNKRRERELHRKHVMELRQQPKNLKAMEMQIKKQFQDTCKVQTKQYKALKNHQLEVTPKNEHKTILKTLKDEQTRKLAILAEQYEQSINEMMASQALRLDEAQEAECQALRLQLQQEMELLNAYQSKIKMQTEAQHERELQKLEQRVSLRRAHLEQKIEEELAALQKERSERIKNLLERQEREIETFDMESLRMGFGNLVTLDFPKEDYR", "procedure,_shortened": "as §1"}, "BTK": {"target": "T11, BTK (Homo sapiens, UniProt Q06187)", "T11 construct": "purchased Millipore, Inc. (KinaseProfiler service)", "procedure,_shortened": "as §1"}, "KIT": {"target": "T12, KIT (Homo sapiens, UniProt P10721)", "T12 construct": "purchased Millipore, Inc. (KinaseProfiler service)", "procedure,_shortened": "as §1"}, "FAK2": {"target": "T13, FAK2 (Homo sapiens, UniProt Q14289)", "T13 construct": "purchased Millipore, Inc. (KinaseProfiler service)", "procedure,_shortened": "as §1"}, "EphA5": {"target": "T14, EphA5 (Homo sapiens, UniProt P54756)", "T14 construct": "purchased Millipore, Inc. (KinaseProfiler service)", "procedure,_shortened": "as §1"}, "Ret": {"target": "T15, Ret (Homo sapiens, UniProt P07949)", "T15 construct": "purchased Millipore, Inc. (KinaseProfiler service)", "procedure,_shortened": "as §1"}, "MAPKAP-K2": {"target": "T16, MAPKAP-K2 (Homo sapiens, UniProt P49137)", "T16 construct": "purchased Millipore, Inc. (KinaseProfiler service)", "procedure,_shortened": "as §1"}, "Plk3": {"target": "T17, Plk3 (Homo sapiens, UniProt Q9H4B4)", "T17 construct": "purchased Millipore, Inc. (KinaseProfiler service)", "procedure,_shortened": "as §1"}, "NEK2": {"target": "T18, NEK2 (Homo sapiens, UniProt P51955)", "T18 construct": "purchased Millipore, Inc. (KinaseProfiler service)", "procedure,_shortened": "as §1"}, "IKKalpha": {"target": "T19, IKKalpha (Homo sapiens, UniProt O15111)", "T19 construct": "purchased Millipore, Inc. (KinaseProfiler service)", "procedure,_shortened": "as §1"}, "AKT2": {"target": "T20, AKT2 (Homo sapiens, UniProt P31751)", "T20 construct": "purchased Millipore, Inc. (KinaseProfiler service)", "T20 sequence (P31751 whole entry)": "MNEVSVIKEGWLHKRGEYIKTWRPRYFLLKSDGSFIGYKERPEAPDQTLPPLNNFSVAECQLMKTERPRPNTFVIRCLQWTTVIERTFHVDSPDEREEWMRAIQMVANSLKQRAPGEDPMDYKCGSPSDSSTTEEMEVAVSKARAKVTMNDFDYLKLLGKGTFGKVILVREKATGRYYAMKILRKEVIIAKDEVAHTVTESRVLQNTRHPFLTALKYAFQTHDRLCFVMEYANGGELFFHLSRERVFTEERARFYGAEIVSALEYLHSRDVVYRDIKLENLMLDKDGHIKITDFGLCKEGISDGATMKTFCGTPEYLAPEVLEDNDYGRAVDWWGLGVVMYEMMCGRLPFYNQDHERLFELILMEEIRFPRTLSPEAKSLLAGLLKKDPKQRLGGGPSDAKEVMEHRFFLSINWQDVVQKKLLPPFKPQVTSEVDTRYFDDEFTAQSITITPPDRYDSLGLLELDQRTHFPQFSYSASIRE", "procedure,_shortened": "as §1"}, "CDK7/cyclinH/MAT1": {"target": "T21, CDK7/cyclinH/MAT1 (Homo sapiens, UniProt P50613)", "T21 construct": "purchased Millipore, Inc. (KinaseProfiler service)", "procedure,_shortened": "as §1"}, "DMPK": {"target": "T22, DMPK (Homo sapiens, UniProt Q09013)", "T22 construct": "purchased Millipore, Inc. (KinaseProfiler service)", "T22 sequence (Q09013 whole entry)": "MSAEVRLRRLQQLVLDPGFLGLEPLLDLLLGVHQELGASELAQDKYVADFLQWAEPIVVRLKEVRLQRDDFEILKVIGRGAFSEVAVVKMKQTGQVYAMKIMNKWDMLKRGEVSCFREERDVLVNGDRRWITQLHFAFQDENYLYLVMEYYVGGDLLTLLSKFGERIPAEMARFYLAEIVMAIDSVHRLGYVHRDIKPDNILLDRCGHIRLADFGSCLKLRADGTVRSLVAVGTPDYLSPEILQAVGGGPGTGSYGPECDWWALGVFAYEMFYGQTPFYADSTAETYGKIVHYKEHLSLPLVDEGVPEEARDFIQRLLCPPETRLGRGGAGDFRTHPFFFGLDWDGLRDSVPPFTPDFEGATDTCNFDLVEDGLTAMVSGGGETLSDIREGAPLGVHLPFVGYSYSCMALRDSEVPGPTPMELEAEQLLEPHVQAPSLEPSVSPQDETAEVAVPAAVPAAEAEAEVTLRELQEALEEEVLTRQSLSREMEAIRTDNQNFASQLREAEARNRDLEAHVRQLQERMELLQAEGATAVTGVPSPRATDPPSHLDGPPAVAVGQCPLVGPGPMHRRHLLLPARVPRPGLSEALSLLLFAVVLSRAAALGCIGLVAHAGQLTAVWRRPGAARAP", "procedure,_shortened": "as §1"}, "WNK3": {"target": "T23, WNK3 (Homo sapiens, UniProt Q9BYP7)", "T23 construct": "purchased Millipore, Inc. (KinaseProfiler service)", "procedure,_shortened": "as §1"}, "MST2": {"target": "T24, MST2 (Homo sapiens, UniProt Q13188)", "T24 construct": "purchased Millipore, Inc. (KinaseProfiler service)", "procedure,_shortened": "as §1"}, "PhKgamma2": {"target": "T25, PhKgamma2 (Homo sapiens, UniProt P15735)", "T25 construct": "purchased Millipore, Inc. (KinaseProfiler service)", "procedure,_shortened": "as §1"}, "Flt1": {"target": "T26, Flt1 (Homo sapiens, UniProt P17948)", "T26 construct": "purchased Millipore, Inc. (KinaseProfiler service)", "procedure,_shortened": "as §1"}, "GSK3alpha": {"target": "T27, GSK3alpha (Homo sapiens, UniProt P49840)", "T27 construct": "purchased Millipore, Inc. (KinaseProfiler service)", "T27 sequence (P49840 whole entry)": "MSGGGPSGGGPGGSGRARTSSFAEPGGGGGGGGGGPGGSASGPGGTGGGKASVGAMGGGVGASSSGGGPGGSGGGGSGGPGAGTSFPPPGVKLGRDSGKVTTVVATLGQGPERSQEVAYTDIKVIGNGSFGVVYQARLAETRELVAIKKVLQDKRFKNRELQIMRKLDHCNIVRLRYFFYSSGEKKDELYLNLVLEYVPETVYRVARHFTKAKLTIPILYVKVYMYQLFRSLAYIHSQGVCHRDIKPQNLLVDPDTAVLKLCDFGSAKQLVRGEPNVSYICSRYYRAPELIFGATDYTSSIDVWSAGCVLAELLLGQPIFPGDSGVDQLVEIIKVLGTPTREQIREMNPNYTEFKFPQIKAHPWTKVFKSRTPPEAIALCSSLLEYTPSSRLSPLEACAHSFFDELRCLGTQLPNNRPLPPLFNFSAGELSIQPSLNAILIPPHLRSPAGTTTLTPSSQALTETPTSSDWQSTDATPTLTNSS", "procedure,_shortened": "as §1"}, "CDK9/cyclinT1": {"target": "T28, CDK9/cyclinT1 (Homo sapiens, UniProt P50750)", "T28 construct": "purchased Millipore, Inc. (KinaseProfiler service)", "procedure,_shortened": "as §1"}, "mTOR": {"target": "T29, mTOR (Homo sapiens, UniProt P42345)", "T29 construct": "purchased Millipore, Inc. (KinaseProfiler service)", "procedure,_shortened": "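With ATP kept near each kinase's Km, a 10 μM dose of compound was tested twice. The reported number is percent of control, averaged across the pair.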"}, "LKB1": {"target": "T30, LKB1 (Homo sapiens, UniProt Q15831)", "T30 construct": "purchased Millipore, Inc. (KinaseProfiler service)", "T30 sequence (Q15831 whole entry)": "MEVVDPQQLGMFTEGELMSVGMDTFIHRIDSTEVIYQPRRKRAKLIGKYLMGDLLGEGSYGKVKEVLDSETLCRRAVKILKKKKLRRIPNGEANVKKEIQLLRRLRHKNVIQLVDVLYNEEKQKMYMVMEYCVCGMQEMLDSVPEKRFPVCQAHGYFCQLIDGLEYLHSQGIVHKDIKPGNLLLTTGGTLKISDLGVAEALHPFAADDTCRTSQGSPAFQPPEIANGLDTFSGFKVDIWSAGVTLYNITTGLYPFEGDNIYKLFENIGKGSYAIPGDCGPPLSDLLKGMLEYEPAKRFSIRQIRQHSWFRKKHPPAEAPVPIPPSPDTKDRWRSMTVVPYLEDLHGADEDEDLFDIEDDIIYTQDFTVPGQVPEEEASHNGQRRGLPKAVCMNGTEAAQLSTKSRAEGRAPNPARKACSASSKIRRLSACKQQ", "T30 sequence (Q7RTN6 whole entry partner)": "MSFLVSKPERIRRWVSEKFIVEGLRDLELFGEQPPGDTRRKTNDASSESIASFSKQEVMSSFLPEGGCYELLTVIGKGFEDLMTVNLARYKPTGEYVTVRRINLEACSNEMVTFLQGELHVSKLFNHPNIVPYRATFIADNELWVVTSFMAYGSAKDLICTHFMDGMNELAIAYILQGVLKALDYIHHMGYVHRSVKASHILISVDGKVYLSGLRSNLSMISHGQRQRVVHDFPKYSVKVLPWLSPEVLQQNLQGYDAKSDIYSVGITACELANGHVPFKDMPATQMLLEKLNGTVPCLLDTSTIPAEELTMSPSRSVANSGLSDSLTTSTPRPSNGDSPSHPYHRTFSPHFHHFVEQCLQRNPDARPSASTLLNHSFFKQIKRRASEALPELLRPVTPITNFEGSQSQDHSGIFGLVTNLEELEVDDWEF", "T30 sequence (Q9Y376 whole entry partner)": "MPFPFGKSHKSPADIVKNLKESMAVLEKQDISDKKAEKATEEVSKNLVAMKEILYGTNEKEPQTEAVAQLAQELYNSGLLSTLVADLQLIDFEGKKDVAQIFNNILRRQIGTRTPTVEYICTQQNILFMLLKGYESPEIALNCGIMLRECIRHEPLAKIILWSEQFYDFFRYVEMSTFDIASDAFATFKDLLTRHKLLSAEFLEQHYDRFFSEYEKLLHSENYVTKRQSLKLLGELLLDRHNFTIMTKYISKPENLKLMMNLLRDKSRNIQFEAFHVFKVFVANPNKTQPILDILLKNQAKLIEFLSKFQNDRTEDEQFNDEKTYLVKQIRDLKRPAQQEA", "procedure,_shortened": "as §1"}, "DRAK1": {"target": "T31, DRAK1 (Homo sapiens, UniProt Q9UEE5)", "T31 construct": "purchased Millipore, Inc. (KinaseProfiler service)", "procedure,_shortened": "as §1"}, "DAPK3": {"target": "T32, DAPK3 (Homo sapiens, UniProt O43293)", "T32 construct": "purchased Millipore, Inc. (KinaseProfiler service)", "procedure,_shortened": "as §1"}, "EGFR": {"target": "T33, EGFR (Homo sapiens, UniProt P00533)", "T33 construct": "purchased Millipore, Inc. (KinaseProfiler service)", "procedure,_shortened": "as §1"}, "GRK6": {"target": "T34, GRK6 (Homo sapiens, UniProt P43250)", "T34 construct": "purchased Millipore, Inc. (KinaseProfiler service)", "procedure,_shortened": "as §1"}, "MAP4K2": {"target": "T35, MAP4K2 (Homo sapiens, UniProt Q12851)", "T35 construct": "purchased Millipore, Inc. (KinaseProfiler service)", "procedure,_shortened": "as §1"}, "ROCK-II": {"target": "T36, ROCK-II (Homo sapiens, UniProt O75116)", "T36 construct": "purchased Millipore, Inc. (KinaseProfiler service)", "procedure,_shortened": "as §1"}, "MKK4_m": {"target": "T37, MKK4_m (Mus musculus, UniProt P47809)", "T37 construct": "purchased Millipore, Inc. (KinaseProfiler service)", "procedure,_shortened": "as §1"}, "EphB3": {"target": "T38, EphB3 (Homo sapiens, UniProt P54753)", "T38 construct": "purchased Millipore, Inc. (KinaseProfiler service)", "procedure,_shortened": "as §1"}, "SGK2": {"target": "T39, SGK2 (Homo sapiens, UniProt Q9HBY8)", "T39 construct": "purchased Millipore, Inc. (KinaseProfiler service)", "procedure,_shortened": "as §1"}, "EphA8": {"target": "T40, EphA8 (Homo sapiens, UniProt P29322)", "T40 construct": "purchased Millipore, Inc. (KinaseProfiler service)", "procedure,_shortened": "as §1"}, "ALK4": {"target": "T41, ALK4 (Homo sapiens, UniProt P36896)", "T41 construct": "purchased Millipore, Inc. (KinaseProfiler service)", "procedure,_shortened": "as §1"}},
  "data": [
    {"compound": "COCCN1C[C@@H](NC(=O)Nc2sc(C(C)C)nc2-c2ccccc2)[C@H](c2ccccc2)C1", "note": "[Example 48, 1-(2-isopropyl-4-phenylthiazol-5-yl)-3-((3S,4R)-1-(2-methoxyethyl)-4-phenylpyrrolidin-3-yl)urea]", "values": [
      {"measurement": "Avg POC", "setting": "Pim-2", "value": "104% of control"},
      {"measurement": "Avg POC", "setting": "MAP3K5", "value": "102.5% of control"},
      {"measurement": "Avg POC", "setting": "PKCalpha", "value": "106.5% of control"},
      {"measurement": "Avg POC", "setting": "HIPK1", "value": "119.5% of control"},
      {"measurement": "Avg POC", "setting": "PKCdelta", "value": "119.5% of control"},
      {"measurement": "Avg POC", "setting": "TAO2", "value": "100.5% of control"},
      {"measurement": "Avg POC", "setting": "TBK1", "value": "96.5% of control"},
      {"measurement": "Avg POC", "setting": "Fgr", "value": "111.5% of control"},
      {"measurement": "Avg POC", "setting": "IR", "value": "102% of control"},
      {"measurement": "Avg POC", "setting": "TAO3", "value": "105.5% of control"},
      {"measurement": "Avg POC", "setting": "BTK", "value": "97.5% of control"},
      {"measurement": "Avg POC", "setting": "KIT", "value": "100% of control"},
      {"measurement": "Avg POC", "setting": "FAK2", "value": "107.5% of control"},
      {"measurement": "Avg POC", "setting": "EphA5", "value": "107% of control"},
      {"measurement": "Avg POC", "setting": "Ret", "value": "125.5% of control"},
      {"measurement": "Avg POC", "setting": "MAPKAP-K2", "value": "109.5% of control"},
      {"measurement": "Avg POC", "setting": "Plk3", "value": "113.5% of control"},
      {"measurement": "Avg POC", "setting": "NEK2", "value": "112% of control"},
      {"measurement": "Avg POC", "setting": "IKKalpha", "value": "112% of control"},
      {"measurement": "Avg POC", "setting": "AKT2", "value": "148% of control"},
      {"measurement": "Avg POC", "setting": "CDK7/cyclinH/MAT1", "value": "112.5% of control"},
      {"measurement": "Avg POC", "setting": "DMPK", "value": "106% of control"},
      {"measurement": "Avg POC", "setting": "WNK3", "value": "99.5% of control"},
      {"measurement": "Avg POC", "setting": "MST2", "value": "109.5% of control"},
      {"measurement": "Avg POC", "setting": "PhKgamma2", "value": "110% of control"},
      {"measurement": "Avg POC", "setting": "Flt1", "value": "96.5% of control"},
      {"measurement": "Avg POC", "setting": "GSK3alpha", "value": "120.5% of control"},
      {"measurement": "Avg POC", "setting": "CDK9/cyclinT1", "value": "111.5% of control"},
      {"measurement": "Avg POC", "setting": "mTOR", "value": "99% of control"},
      {"measurement": "Avg POC", "setting": "LKB1", "value": "114.5% of control"},
      {"measurement": "Avg POC", "setting": "DRAK1", "value": "104% of control"},
      {"measurement": "Avg POC", "setting": "DAPK3", "value": "91% of control"},
      {"measurement": "Avg POC", "setting": "EGFR", "value": "111% of control"},
      {"measurement": "Avg POC", "setting": "GRK6", "value": "101% of control"},
      {"measurement": "Avg POC", "setting": "MAP4K2", "value": "110.5% of control"},
      {"measurement": "Avg POC", "setting": "ROCK-II", "value": "104.5% of control"},
      {"measurement": "Avg POC", "setting": "MKK4_m", "value": "122% of control"},
      {"measurement": "Avg POC", "setting": "EphB3", "value": "119% of control"},
      {"measurement": "Avg POC", "setting": "SGK2", "value": "121.5% of control"},
      {"measurement": "Avg POC", "setting": "EphA8", "value": "122.5% of control"},
      {"measurement": "Avg POC", "setting": "ALK4", "value": "88.5% of control"}
    ]}
  ]
}
